Results taken from article PMC4551797 (PLoS ONE, 2015).

Experiments:
gallbladder = settings: cited from earlier work
C57BL/6 mice [1] = test: Oral glucose tolerance test, glucose only; settings: 100 mg/kg oral, glucose 3 g/kg 15 min after compound
Experimental: For measurement of glucose only, overnight-fasted C57BL/6 mice in a normal light cycle were orally dosed with vehicle or compound, followed by an oral bolus of 3 g/kg glucose at 15 minutes post compound. At 0, 20, 40, 60, and 120 minutes post glucose dose, blood glucose was assessed via glucometers. Resulting raw data was used to generate AUCs. […] At 0, 15, 30, 60, and 120 minutes post glucose dose, blood glucose was assessed via glucometers. Resulting raw data was used to generate AUCs.

[2] = Plasma compound levels after oral dosing (LC-MS/MS); settings: C57BL/6, mouse, 100 mg/kg
C57BL/6 mice [3] = test: Acute in vivo incretin secretion assay (plasma GLP-1 and PYY AUC); settings: 100 mg/kg oral, fasted mice, 3-hour time course
Description: Plasma was separated by centrifugation, aliquoted, and analyzed for GLP-1 (X-36) amide (Mesoscale Discovery) and total PYY (Millipore). Resulting raw data was used to generate area under the curve analyses (AUCs).

C57BL/6 mice [4] = test: Three-day study on GLP-1 and gallbladder filling (bile weight); type: in vivo, mouse; settings: 100 mg/kg oral BID 3 days, 30 min after last dose
Experimental: C57BL/6 mice, Tgr5 KO mice, or their wild-type littermate controls were orally dosed with vehicle or compounds twice per day for 3 days, with overnight fasting performed on the evening of day 2. On the morning of day 3, animals were dosed orally with compounds and then euthanized by CO2 asphyxiation at 30 minutes after the fifth dose. Plasma was collected for analysis of GLP-1 (X-36) amide as mentioned above, followed immediately by incision into the abdominal cavity to remove and weigh bile from the gallbladder.
On the third day, compound was dosed in the morning followed 30 minutes later by measurement of bile filling (A) by use of a needle and syringe and GLP-1 (x-36) amide (B) by cardiac puncture.

C57BL/6 mice [5] = test: Oral glucose tolerance test with hormone measurement; type: in vivo, mouse; settings: 10 mg/kg oral, glucose 3 g/kg, 1 hour
Experimental: For measurement of glucose only, overnight-fasted C57BL/6 mice in a normal light cycle were orally dosed with vehicle or compound, followed by an oral bolus of 3 g/kg glucose at 15 minutes post compound. At 0, 20, 40, 60, and 120 minutes post glucose dose, blood glucose was assessed via glucometers. Resulting raw data was used to generate AUCs. For measurement of hormones and glucose, overnight-fasted C57BL/6 mice acclimated for two weeks to a reverse light cycle were orally dosed with vehicle or compound, followed by an oral bolus of 3 g/kg glucose at 15 minutes post compound. At 0, 2, 5, 10, 20, 40, and 60 minutes post glucose dose, blood glucose was assessed via glucometers, followed immediately by collection of plasma for active GLP-1 (Mesoscale Discovery), insulin (Mesoscale Discovery), and total PYY. Glucose tolerance tests in diet-induced obese (DIO) C57BL/6 mice were performed in overnight-fasted animals dosed either acutely or after 2-week administration with vehicle or compound 18 at 60 mg/kg, followed 30 minutes post compound by an oral bolus of 2 g/kg glucose. At 0, 15, 30, 60, and 120 minutes post glucose dose, blood glucose was assessed via glucometers. Resulting raw data was used to generate AUCs.
To evaluate glucose, insulin, GLP-1, and PYY levels throughout the OGTT, each time-point consisted of a separate group of mice that were used to record glucose by use of a glucometer followed by terminal bleeds for measurement of active GLP-1, total PYY, and insulin. AUCs were then calculated for the entire hour of the OGTT. […] Changes in insulin AUCs were not increased with treatment of either sitagliptin or compound 18, likely due to the lower glucose levels reducing the drive for glucose-stimulated insulin secretion (Fig 5D).
Fig 5 Compound 18 increases GLP-1 and PYY and lowers the glucose and insulin excursions as compared to sitagliptin in an OGTT in C57BL/6 mice. […] Plasma was analyzed for active GLP-1 (A), total PYY (B), and insulin (D), while blood glucose was measured by glucometers (C).

Compound | gallbladder filling with bile (gallbladder) | effect on glucose tolerance in OGTT (C57BL/6 mice [1]) | AUC(0-t) [2] [µM·h] | Cmax [2] [µM] | Tmax [2] [h] | GLP-1 AUC increase over vehicle (C57BL/6 mice [3]) [fold over vehicle] | PYY AUC increase over vehicle (C57BL/6 mice [3]) [fold over vehicle] | bile weight (gallbladder filling) (C57BL/6 mice [4]) | plasma GLP-1 levels (C57BL/6 mice [4]) | insulin AUC during OGTT (C57BL/6 mice [5])
CC[C@H]1[C@@H](O)[C@@H]2[C@H](C[C@H](O)[C@]3(C)[C@@H]([C@H](C)C[C@H](C)C(=O)O)CC[C@@H]23)[C@@]2(C)CC[C@@H](O)C[C@@H]12 [INT-777, 6α-ethyl-23(S)-methylcholic acid, reference compound] | stimulated gallbladder filling with bile | no detectable improvement of glucose tolerance | 264 | 136 | 1.5 | 2.8 | 1.6 | significant increase in bile weight | no detectable increase in GLP-1 | 
N[C@@H](CC(=O)N1CCn2c(nnc2C(F)(F)F)C1)Cc1cc(F)c(F)cc1F [sitagliptin, reference compound] |  |  |  |  |  |  |  |  |  | not increased
